Experimental data: ChEMBL document CHEMBL2331238, “Xanthoquinodins from the endolichenic fungal strain Chaetomium elatum” (J Nat Prod, 2013)

Key:
Type in all cases: functional, cell-based
[1] = system: MCF7; test: Cytotoxicity against human MCF7 assessed as cell viability measured after 48 hrs by MTT assay; settings: MCF7, 48 h
[2] = system: HL-60; test: Cytotoxicity against human HL60 cells assessed as cell viability measured after 48 hrs by MTT assay; settings: HL-60, 48 h
[3] = system: A549; test: Cytotoxicity against human A549 assessed as cell viability measured after 48 hrs by MTT assay; settings: A549, 48 h
[4] = system: SMMC-7721; test: Cytotoxicity against human SMMC7721 assessed as cell viability measured after 48 hrs by MTT assay; settings: SMMC-7721, 48 h
[5] = system: SW480; test: Cytotoxicity against human SW480 assessed as cell viability measured after 48 hrs by MTT assay; settings: SW480, 48 h

`CC(=O)O[C@H]1C(=O)[C@@]2(C)[C@H]([C@H](OC(=O)c3ccccc3)[C@]3(O)C[C@H](OC(=O)[C@H](O)[C@@H](NC(=O)c4ccccc4)c4ccccc4)C(C)=C1C3(C)C)[C@]1(OC(C)=O)CO[C@@H]1C[C@@H]2O` [PACLITAXEL] showed an IC50 [1] of less than 0.008 µM, an IC50 [2] of less than 0.008 µM and an IC50 [3] of less than 0.008 µM. It also gave an IC50 [4] of less than 0.008 µM and an IC50 [5] of less than 0.008 µM.

`COC(=O)[C@@]12Oc3cc4c(c(O)c3C(=O)C1=C(O)CC[C@@H]2O)[C@@H]1C=C[C@@]2(C4)C(=O)c3cc(C)cc(O)c3C(O)=C2C1=O` [XANTHOQUINODIN A1] gave an IC50 [1] of 14.2 µM, an IC50 [2] of 6.22 µM and an IC50 [3] of 3.33 µM. For the same compound, the IC50 [4] was 8 µM and the IC50 [5] was 28.8 µM.

With `COC(=O)[C@]12Oc3cc4c(c(O)c3C(=O)C1=C(O)CC[C@@H]2O)[C@@H]1C=C[C@@]2(C4)C(=O)c3cc(C)cc(O)c3C(O)=C2C1=O` [XANTHOQUINODIN A2] the IC50 [1] was 20.8 µM, the IC50 [2] was 5.5 µM and the IC50 [3] was 4.04 µM. For the same compound, the IC50 [4] was 6.77 µM and the IC50 [5] was greater than 40 µM.

Compound `COC(=O)[C@]1([C@@H]2CCC(=O)O2)CC(=O)c2c(cc3c(c2O)[C@@H]2C=C[C@@]4(C3)C(=O)c3cc(C)cc(O)c3C(O)=C4C2=O)O1` [XANTHOQUINODIN A3] has an IC50 [1] of 7.47 µM, an IC50 [2] of 4.18 µM and an IC50 [3] of 15.3 µM. For the same compound, the IC50 [4] was 16.7 µM and the IC50 [5] was 15.5 µM.

For `COC(=O)[C@]1([C@@H]2CCC(=O)O2)CC(=O)c2c(cc3c(c2O)[C@@H]2C=C[C@]4(C3)C(=C(O)c3c(O)cc(C)cc3[C@@H]4O)C2=O)O1` [XANTHOQUINODIN A4], the IC50 [1] was 31.2 µM, the IC50 [2] was greater than 40 µM and the IC50 [3] was 25.5 µM. For the same compound, the IC50 [4] was 19.2 µM and the IC50 [5] was 18.9 µM.

Compound `COC(=O)CC[C@H](O)[C@@]1(C(=O)OC)CC(=O)c2c(cc3c(c2O)[C@@H]2C=C[C@]4(C3)C(=C(O)c3c(O)cc(C)cc3[C@@H]4O)C2=O)O1` [XANTHOQUINODIN A5] has an IC50 [1] of 24 µM, an IC50 [2] of 26.6 µM and an IC50 [3] of 18.6 µM. The IC50 [4] was 16.8 µM and the IC50 [5] was 16.2 µM.

`COC(=O)[C@]12Oc3cc4c(c(O)c3C(=O)C1=C(O)CC[C@@H]2O)[C@@H]1C=C[C@]2(C4)C(=C(O)c3c(O)cc(C)cc3[C@@H]2O)C1=O` [XANTHOQUINODIN A6] showed an IC50 [1] of 5.64 µM, an IC50 [2] of 3.75 µM and an IC50 [3] of 2.04 µM. The IC50 [4] was 2.87 µM and the IC50 [5] was 6.44 µM.

`COC(=O)[C@]12Oc3c(c(O)cc4c3[C@@H]3C=C[C@]5(C4)C(=C(O)c4c(O)cc(C)cc4[C@@H]5O)C3=O)C(=O)C1=C(O)CC[C@@H]2O` [XANTHOQUINODIN B4] showed an IC50 [1] of 30 µM, an IC50 [2] of 3.01 µM and an IC50 [3] of 25.1 µM. The IC50 [4] was 27.7 µM and the IC50 [5] was greater than 40 µM.

`COC(=O)[C@@]12Oc3c(c(O)cc4c3[C@@H]3C=C[C@]5(C4)C(=C(O)c4c(O)cc(C)cc4[C@@H]5O)C3=O)C(=O)C1=C(O)CC[C@@H]2O` [XANTHOQUINODIN B5] gave an IC50 [1] of 38.2 µM, an IC50 [2] of 4.74 µM and an IC50 [3] of 11.4 µM. The IC50 [4] was 15 µM and the IC50 [5] was greater than 40 µM.
